Measured values from patent US20110104055A1, “SUBSTITUTED N-ARYL BENZAMIDES AND RELATED COMPOUNDS FOR TREATMENT OF AMYLOID DISEASES AND SYNUCLEINOPATHIES” (priority 2002, published 2011).

Assays:
Type in all cases: biochemical
Aβ 1-42 fibrils [1] = biological target: T1, Aβ 1-42 fibrils (Homo sapiens, UniProt P05067); assay: Thioflavin T fluorometry, disruption of pre-formed Aβ 1-42 fibrils (Example 7); details: for % inhibition of Aβ (Thioflavin T fluorometry): 25 μM pre-fibrillized Aβ 1-42, 37° C., 3 days (Table 3)
T1 construct: purchased Bachem Inc
Description: (§1) In this assay Thioflavin T binds specifically to fibrillar amyloid, and this binding produces a fluorescence enhancement at 485 nm that is directly proportional to the amount of amyloid fibrils formed. The higher the fluorescence, the greater the amount of amyloid fibrils formed (Naki et al., Lab. Invest. 65:104-110, 1991; Levine III, Protein Sci. 2:404-410, 1993; Amyloid: Int. J. Exp. Clin. Invest. 2:1-6, 1995).
(§2) Following 3 days of co-incubation, 50 μl of each incubation mixture was transferred into a 96-well microtiter plate containing 150 μl of distilled water and 50 μl of a Thioflavin T solution (i.e. 500 mM Thioflavin T in 250 mM phosphate buffer, pH 6.8). The fluorescence was read at 485 nm (444 nm excitation wavelength) using an ELISA plate fluorometer after subtraction with buffer alone or compound alone, as blank).

α-synuclein fibrils = biological target: T2, α-synuclein fibrils (Homo sapiens, UniProt P37840); assay: Congo red binding assay, α-synuclein fibrils (Example 12); details: 3-day incubation
T2 construct: purchased rPeptide
Description: (§3) In the Congo red binding assay, the ability of a given test compound to alter amyloid (in this case, α-synuclein) binding to Congo red is quantified. In this assay, α-synuclein and test compounds were incubated for 3 days and then vacuum filtered through a 0.2 μm filter. The amount of α-synuclein retained in the filter was then quantitated following staining of the filter with Congo red. After appropriate washing of the filter, any lowering of the Congo red color on the filter in the presence of the test compound (compared to the Congo red staining of the amyloid protein in the absence of the test compound) was indicative of the test compound's ability to diminish/alter the amount of aggregated and congophilic α-synuclein.
In one study, the ability of α-synuclein fibrils to bind Congo red in the absence or presence of increasing amounts of compounds DC-0051-F1, F2, F3, F4, F5, F6 and EDTA (at α-synuclein:test compound weight ratios of 1:1, 1:0.1, 1:0.01 or 1:0.001) was determined.

IAPP fibrils = biological target: T3, IAPP fibrils (Homo sapiens, UniProt P10997); assay: Congo red binding assay, IAPP fibrils; details: 3-day incubation
T3 construct: purchased Bachem Inc
T3 sequence (P10997 34-70 limits assumed): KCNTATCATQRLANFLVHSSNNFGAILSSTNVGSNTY
Description: as §3, with “binding assay” for “binding assay,”, “amyloid (Aβ 1-42 fibrils, IAPP fibrils or NAC fibrils)” for “amyloid (in this case, α-synuclein)”, “red was” for “red is”, “assay, Aβ 1-42 fibrils, IAPP fibril or NAC fibrils” for “assay, α-synuclein”, “of Aβ 1-42 fibrils, IAPP fibrils or NAC fibrils” for “of α-synuclein”, “congophilic Aβ 1-42 fibrils, IAPP fibrils or NAC fibrils.” for “congophilic α-synuclein.”
In the Congo red binding assay the ability of a test compound to alter amyloid (in this case, IAPP) binding to Congo red is quantified. In this assay, IAPP and test compounds were incubated for 3 days and then vacuum filtered through a 0.2 μm filter. The amount of IAPP retained in the filter was then quantified following staining of the filter with Congo red. After appropriate washing of the filter, any lowering of the Congo red color on the filter in the presence of the test compound (compared to the Congo red staining of the amyloid protein in the absence of the test compound) was indicative of the test compound's ability to diminish/alter the amount of aggregated and congophilic IAPP.
In one study, the ability of IAPP fibrils to bind Congo red in the absence or presence of increasing amounts of the compounds or EDTA (at IAPP:test compound weight ratios of 1:0.001, 1:0.01, 1:0.1 and 1:1) was determined.

Aβ 1-42 fibrils [2] = biological target: T1, Aβ 1-42 fibrils; assay: Thioflavin T fluorometry, disruption of pre-formed Aβ 1-42 fibrils (Example 11); details: 3 days; for % Inhibition Aβ (result ± S.D.), Thioflavin T fluorometry: 30 μg pre-fibrillized Aβ 1-42, 37° C.
Source text: as §1, with “In one study, Thioflavin T fluorometry was used to determine the effects of the compounds, and of EDTA (as a negative control). In this” for “In this”
as §2, with “3-days” for “3 days”, “blank.” for “blank).”

[3] = Aβ:test compound wt/wt ratio 1:0.001
[4] = Aβ:test compound wt/wt ratio 1:0.01
[5] = Aβ:test compound wt/wt ratio 1:0.1
[6] = Aβ:test compound wt/wt ratio 1:1

T1 sequence (P05067 672-713): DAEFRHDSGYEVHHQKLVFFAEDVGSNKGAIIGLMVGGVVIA

O=C(O)CN(CCN(CC(=O)O)CC(=O)O)CC(=O)O [EDTA]
% inhibition of Aβ (Thioflavin T fluorometry) (Aβ 1-42 fibrils [1]; [3]): 10.3 +/− 10.81%
% inhibition of Aβ (Thioflavin T fluorometry) (Aβ 1-42 fibrils [1]; [4]): 0.0 +/− 2.26%
% inhibition of Aβ (Thioflavin T fluorometry) (Aβ 1-42 fibrils [1]; [5]): 0.0 +/− 1.18%
% inhibition of Aβ (Thioflavin T fluorometry) (Aβ 1-42 fibrils [1]; [6]): 5.0 +/− 11.39%
disruption/disassembly of preformed Aβ 1-42 fibrils, in words (Aβ 1-42 fibrils [1]; Thioflavin T fluorometry, all concentrations tested, 3 days): no significant inhibition/disruption
inhibition of α-synuclein fibril binding to Congo red, in words (α-synuclein fibrils; all concentrations tested): no significant inhibition
% Inhibition α-synuclein (result ± S.D.), Congo red binding (α-synuclein fibrils; α-synuclein:test compound wt/wt ratio 1:0.001): 3.3 ± 1.85%
% Inhibition α-synuclein (result ± S.D.), Congo red binding (α-synuclein fibrils; α-synuclein:test compound wt/wt ratio 1:0.01): 2.9 ± 5.0%
% Inhibition α-synuclein (result ± S.D.), Congo red binding (α-synuclein fibrils; α-synuclein:test compound wt/wt ratio 1:0.1): 2.2 ± 5.16%
% Inhibition α-synuclein (result ± S.D.), Congo red binding (α-synuclein fibrils; α-synuclein:test compound wt/wt ratio 1:1): 0.0 ± 5.50%
inhibition of IAPP fibril binding to Congo red, in words (IAPP fibrils): no significant inhibition
% inhibition of IAPP (Congo red binding) (IAPP fibrils; IAPP:test compound wt/wt ratio 1:0.001): 0.0 ± 1.82%
% inhibition of IAPP (Congo red binding) (IAPP fibrils; IAPP:test compound wt/wt ratio 1:0.01): 0.0 +/− 1.65%
% inhibition of IAPP (Congo red binding) (IAPP fibrils; IAPP:test compound wt/wt ratio 1:0.1): 0.0 +/− 2.40%
% inhibition of IAPP (Congo red binding) (IAPP fibrils; IAPP:test compound wt/wt ratio 1:1): 13.9 +/− 4.71%
% Inhibition Aβ (result ± S.D.), Thioflavin T fluorometry (Aβ 1-42 fibrils [2]; [3]): 0.0 ± 1.70%
% Inhibition Aβ (result ± S.D.), Thioflavin T fluorometry (Aβ 1-42 fibrils [2]; [4]): 2.4 ± 2.86%
% Inhibition Aβ (result ± S.D.), Thioflavin T fluorometry (Aβ 1-42 fibrils [2]; [5]): 0.0 ± 6.02%
% Inhibition Aβ (result ± S.D.), Thioflavin T fluorometry (Aβ 1-42 fibrils [2]; [6]): 0.0 ± 3.46%
disruption/disassembly of preformed Aβ 1-42 fibrils, in words (Aβ 1-42 fibrils [2]; Thioflavin T fluorometry, all concentrations tested): no significant inhibition
